According to the supplement of paper PMC10307832:

Key:
Test in all cases: relative viability (nuclei count vs DMSO), 5 days (fraction); higher = more cells survive
Kobe2602 = compound: C1=CC(=CC=C1NC(=S)NNC2=C(C=C(C=C2[N+](=O)[O-])C(F)(F)F)[N+](=O)[O-])F [Kobe2602]
Method in brief: (§1)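 Lung cancer cell lines were seeded into 1536-well plates, kept overnight at 37 °C and pinned with five library-drug doses (not always all listed) spaced by √10. After 5 days, nuclei were Hoechst-stained, imaged at 4× and counted with MetaXpress. Viability is treated-well nuclei over vehicle-well nuclei, taken as a median across plates. Plates needed control CV below 25% and at least one doubling.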

Cabozantinib = compound: COc1cc2nccc(Oc3ccc(NC(=O)C4(C(=O)Nc5ccc(F)cc5)CC4)cc3)c2cc1OC [Cabozantinib]
Method in brief: as §1

Zosuquidar = compound: O[C@@H](COc1cccc2ncccc12)CN1CCN([C@@H]2c3ccccc3[C@@H]3[C@H](c4ccccc42)C3(F)F)CC1 [Zosuquidar]
Method in brief: as §1

LCLC-97TM1
relative viability (Kobe2602; 0.2 µM): 1.07 | relative viability (Kobe2602; 0.6325 µM): 1.07 | relative viability (Kobe2602; 2 µM): 0.928 | relative viability (Kobe2602; 6.325 µM): 0.798 | relative viability (Kobe2602; 20 µM): 1 | relative viability (Cabozantinib; 0.06325 µM): 1.02 | relative viability (Cabozantinib; 0.2 µM): 1.06 | relative viability (Cabozantinib; 0.6325 µM): 0.999 | relative viability (Cabozantinib; 2 µM): 1.02 | relative viability (Zosuquidar; 0.01 µM): 0.9 | relative viability (Zosuquidar; 0.03162 µM): 1.12 | relative viability (Zosuquidar; 0.3162 µM): 1.02 | relative viability (Zosuquidar; 1 µM): 0.939

LU99A
relative viability (Kobe2602; 0.2 µM): 0.908 | relative viability (Kobe2602; 0.6325 µM): 0.998 | relative viability (Kobe2602; 2 µM): 0.948 | relative viability (Kobe2602; 6.325 µM): 0.939 | relative viability (Kobe2602; 20 µM): 1.01 | relative viability (Cabozantinib; 0.02 µM): 0.889 | relative viability (Cabozantinib; 0.06325 µM): 1.03 | relative viability (Cabozantinib; 0.2 µM): 0.979 | relative viability (Cabozantinib; 0.6325 µM): 0.901 | relative viability (Cabozantinib; 2 µM): 0.822 | relative viability (Zosuquidar; 0.01 µM): 0.984 | relative viability (Zosuquidar; 0.03162 µM): 0.833 | relative viability (Zosuquidar; 0.1 µM): 0.971 | relative viability (Zosuquidar; 0.3162 µM): 1.04 | relative viability (Zosuquidar; 1 µM): 0.912

NCI-H1299
relative viability (Kobe2602; 0.2 µM): 0.977 | relative viability (Kobe2602; 0.6325 µM): 1.06 | relative viability (Kobe2602; 2 µM): 1.02 | relative viability (Kobe2602; 6.325 µM): 1.04 | relative viability (Kobe2602; 20 µM): 0.994 | relative viability (Cabozantinib; 0.02 µM): 1.03 | relative viability (Cabozantinib; 0.06325 µM): 1.08 | relative viability (Cabozantinib; 0.2 µM): 1.03 | relative viability (Cabozantinib; 0.6325 µM): 1.05 | relative viability (Cabozantinib; 2 µM): 1.08 | relative viability (Zosuquidar; 0.01 µM): 1.02 | relative viability (Zosuquidar; 0.03162 µM): 0.989 | relative viability (Zosuquidar; 0.1 µM): 1.04 | relative viability (Zosuquidar; 0.3162 µM): 1.01 | relative viability (Zosuquidar; 1 µM): 1

NCI-H1355
relative viability (Kobe2602; 0.2 µM): 0.914 | relative viability (Kobe2602; 0.6325 µM): 1.01 | relative viability (Kobe2602; 2 µM): 0.911 | relative viability (Kobe2602; 6.325 µM): 0.965 | relative viability (Kobe2602; 20 µM): 0.959 | relative viability (Cabozantinib; 0.02 µM): 0.954 | relative viability (Cabozantinib; 0.06325 µM): 1.11 | relative viability (Cabozantinib; 0.2 µM): 0.977 | relative viability (Cabozantinib; 0.6325 µM): 0.96 | relative viability (Cabozantinib; 2 µM): 0.961 | relative viability (Zosuquidar; 0.01 µM): 0.99 | relative viability (Zosuquidar; 0.03162 µM): 0.967 | relative viability (Zosuquidar; 0.1 µM): 0.843 | relative viability (Zosuquidar; 0.3162 µM): 1.06 | relative viability (Zosuquidar; 1 µM): 0.973

HARA
relative viability (Kobe2602; 0.2 µM): 0.978 | relative viability (Kobe2602; 0.6325 µM): 1.13 | relative viability (Kobe2602; 2 µM): 0.944 | relative viability (Kobe2602; 6.325 µM): 1.01 | relative viability (Kobe2602; 20 µM): 1.03 | relative viability (Cabozantinib; 0.02 µM): 0.916 | relative viability (Cabozantinib; 0.06325 µM): 1.16 | relative viability (Cabozantinib; 0.2 µM): 0.714 | relative viability (Cabozantinib; 0.6325 µM): 1.04 | relative viability (Cabozantinib; 2 µM): 1.05 | relative viability (Zosuquidar; 0.01 µM): 0.98 | relative viability (Zosuquidar; 0.03162 µM): 0.852 | relative viability (Zosuquidar; 0.1 µM): 0.944 | relative viability (Zosuquidar; 0.3162 µM): 1.01 | relative viability (Zosuquidar; 1 µM): 0.941

LXF-289
relative viability (Kobe2602; 0.2 µM): 1.03 | relative viability (Kobe2602; 0.6325 µM): 1.04 | relative viability (Kobe2602; 2 µM): 0.99 | relative viability (Kobe2602; 6.325 µM): 0.985 | relative viability (Kobe2602; 20 µM): 0.991 | relative viability (Cabozantinib; 0.02 µM): 1.04 | relative viability (Cabozantinib; 0.06325 µM): 1.02 | relative viability (Cabozantinib; 0.2 µM): 0.974 | relative viability (Cabozantinib; 0.6325 µM): 1.05 | relative viability (Cabozantinib; 2 µM): 1.02 | relative viability (Zosuquidar; 0.01 µM): 1.01 | relative viability (Zosuquidar; 0.03162 µM): 1.02 | relative viability (Zosuquidar; 0.1 µM): 1.01 | relative viability (Zosuquidar; 0.3162 µM): 1.02 | relative viability (Zosuquidar; 1 µM): 0.97

201T
relative viability (Kobe2602; 0.2 µM): 1 | relative viability (Kobe2602; 0.6325 µM): 1.01 | relative viability (Kobe2602; 2 µM): 0.946 | relative viability (Kobe2602; 6.325 µM): 0.997 | relative viability (Kobe2602; 20 µM): 0.963 | relative viability (Cabozantinib; 0.02 µM): 0.868 | relative viability (Cabozantinib; 0.06325 µM): 1.1 | relative viability (Cabozantinib; 0.2 µM): 0.967 | relative viability (Cabozantinib; 0.6325 µM): 1 | relative viability (Cabozantinib; 2 µM): 0.965 | relative viability (Zosuquidar; 0.01 µM): 0.947 | relative viability (Zosuquidar; 0.03162 µM): 0.979 | relative viability (Zosuquidar; 0.1 µM): 0.883 | relative viability (Zosuquidar; 0.3162 µM): 0.985 | relative viability (Zosuquidar; 1 µM): 0.982

HCC-827
relative viability (Kobe2602; 0.2 µM): 1.07 | relative viability (Kobe2602; 0.6325 µM): 1.13 | relative viability (Kobe2602; 2 µM): 1.06 | relative viability (Kobe2602; 6.325 µM): 1 | relative viability (Kobe2602; 20 µM): 1.02 | relative viability (Cabozantinib; 0.02 µM): 1.07 | relative viability (Cabozantinib; 0.06325 µM): 1.01 | relative viability (Cabozantinib; 0.6325 µM): 1.12 | relative viability (Cabozantinib; 2 µM): 1.06 | relative viability (Zosuquidar; 0.01 µM): 0.973 | relative viability (Zosuquidar; 0.03162 µM): 0.977 | relative viability (Zosuquidar; 0.1 µM): 0.981 | relative viability (Zosuquidar; 0.3162 µM): 1.06 | relative viability (Zosuquidar; 1 µM): 0.976

NCI-H1703
relative viability (Kobe2602; 0.2 µM): 0.831 | relative viability (Kobe2602; 0.6325 µM): 1.08 | relative viability (Kobe2602; 2 µM): 0.83 | relative viability (Kobe2602; 6.325 µM): 0.898 | relative viability (Kobe2602; 20 µM): 0.727 | relative viability (Cabozantinib; 0.02 µM): 0.57 | relative viability (Cabozantinib; 0.06325 µM): 0.662 | relative viability (Cabozantinib; 0.2 µM): 0.325 | relative viability (Cabozantinib; 0.6325 µM): 0.262 | relative viability (Cabozantinib; 2 µM): 0.233 | relative viability (Zosuquidar; 0.01 µM): 1.07 | relative viability (Zosuquidar; 0.03162 µM): 1.14 | relative viability (Zosuquidar; 0.1 µM): 0.993 | relative viability (Zosuquidar; 0.3162 µM): 1.12 | relative viability (Zosuquidar; 1 µM): 1.01

NCI-H1975
relative viability (Kobe2602; 0.2 µM): 0.995 | relative viability (Kobe2602; 0.6325 µM): 0.978 | relative viability (Kobe2602; 2 µM): 0.852 | relative viability (Kobe2602; 6.325 µM): 0.836 | relative viability (Kobe2602; 20 µM): 0.905 | relative viability (Cabozantinib; 0.02 µM): 1.03 | relative viability (Cabozantinib; 0.06325 µM): 1.1 | relative viability (Cabozantinib; 0.2 µM): 0.961 | relative viability (Cabozantinib; 0.6325 µM): 0.873 | relative viability (Cabozantinib; 2 µM): 0.855 | relative viability (Zosuquidar; 0.01 µM): 0.934 | relative viability (Zosuquidar; 0.03162 µM): 0.824 | relative viability (Zosuquidar; 0.1 µM): 0.937 | relative viability (Zosuquidar; 0.3162 µM): 1.06 | relative viability (Zosuquidar; 1 µM): 0.959
